Data reported in patent US11857533B2, “Composition for preventing or treating obesity or lipid-related metabolic disorders” (Nexyon Biotech Co., Ltd., priority 2019, dated 2024).

How the values were obtained:
Assay type in all cases: in vivo, C57BL/6 mice
[1] = system: high-fat-diet-induced obesity mouse model; test: Hepatic steatosis amelioration, liver tissue microscopy, high-fat-diet-induced obesity mouse model; conditions: 10 mg/kg orally once a day for 13 weeks, vs vehicle
Method: (§1) 8-week-old C57BL/6 mice were fed with a 60% high-fat diet, and a vehicle or irosustat (10 mg/kg) prepared in Preparation Example 1 was administered orally to the mice once a day for a total of 10 days.
An experiment was performed under the same conditions as in Experimental Example 1 above, except that the mice were euthanized after oral administration of irosustat for 13 weeks and hepatic tissue was taken and then imaged with a microscope.

[2] = system: high-fat-diet-induced obesity mouse model; test: Glucose tolerance test (GTT) in high-fat-diet-induced obesity mouse model; conditions: 10 mg/kg orally for 11 weeks, 16 h fast, glucose 1 g/kg i.p., 0-120 min, vs vehicle
Method: as §1
An experiment was performed under the same conditions as in Experimental Example 1 above, except that the mice were fasted for 16 hours after oral administration of irosustat for 11 weeks, and glucose was injected intraperitoneally into the mice at a dose of 1 g/kg body weight. 0 min, 15 min, 30 min, 60 min, 90 min and 120 min after intraperitoneal injection, blood was collected from the tail of each mice and the glucose level in the blood was measured. However, during the glucose tolerance test, a stable environment was provided to the experimental animals. In addition, AUC (area under the glucose-time curve) was measured using the following Equation 1 and the results are shown in FIG. 8. In Equation 1, C0, C15, C30, C60, C90 and C120 are glucose levels measured at 0 min, 15 min, 30 min, 60 min, 90 min and 120 min, respectively. AUC=0.5×(0.5×C0+C15+C30+C60+C90+0.5×C120) [Equation 1]

[3] = system: high-fat-diet-induced obesity mouse model; test: Blood cholesterol and triglyceride levels in high-fat-diet-induced obesity mouse model; conditions: 10 mg/kg orally once a day for 13 weeks, vs vehicle
Method: as §1
An experiment was performed under the same conditions as in Experimental Example 1 above, except that the blood cholesterol and triglyceride levels in the control group and the drug-administered group were measured after oral administration of irosustat for 13 weeks. The results of measurement of the cholesterol and triglyceride levels are shown in FIGS. 11 and 12, respectively.

[4] = system: high-fat-diet-induced obesity mouse model; test: Adipocyte size in abdominal fat tissue, high-fat-diet-induced obesity mouse model; conditions: 10 mg/kg orally once a day for 13 weeks, vs vehicle
Method: as §1
An experiment was performed under the same conditions as in Experimental Example 1 above, except that the mice were euthanized after oral administration of irosustat for 13 weeks and abdominal fat tissue was taken and then imaged with a microscope. In addition, the areas of adipocytes in the abdominal fat tissue in the control group and the drug-administered group were measured, and the results are shown in FIG. 5.

[5] = system: high-fat-diet-induced obesity mouse model; test: Insulin tolerance test (ITT) in high-fat-diet-induced obesity mouse model; conditions: 10 mg/kg orally for 12 weeks, 2 h fast, insulin 0.8 units/kg i.p., 0-120 min, vs vehicle
Method: as §1
An experiment was performed under the same conditions as in Experimental Example 1 above, except that the mice were fasted for 2 hours after oral administration of irosustat for 12 weeks, and then the blood glucose levels of the mice were measured and insulin was injected intraperitoneally into the mice at a dose of 0.8 units/kg body weight. 0 min, 15 min, 30 min, 60 min, 90 min and 120 min after intraperitoneal injection, blood was collected from the tail of each mice and the glucose level in the blood was measured.

[6] = system: high-fat-diet-induced obesity mouse model; test: Fat mass and lean mass by DEXA in high-fat-diet-induced obesity mouse model; conditions: 10 mg/kg orally once a day for 13 weeks, vs vehicle
Method: as §1
An experiment was performed under the same conditions as in Experimental Example 1 above, except that the mice were imaged using DEXA (Dual-energy X-ray absorptiometry) after the vehicle or irosustat was administered orally to the mice for 13 weeks.

[7] = system: high-fat-diet-induced obesity mouse model; test: Weight loss effect in high-fat-diet-induced obesity mouse model; conditions: irosustat 10 mg/kg orally once a day, 60% high-fat diet
Method: as §1

NS(=O)(=O)Oc1ccc2c3c(c(=O)oc2c1)CCCCC3 [irosustat, (6-oxo-8,9,10,11-tetrahydro-7H-cyclohepta[c]chromen-3-yl) sulfamate]
findings of hepatic steatosis caused by the high-fat diet [1]: significantly improved | blood glucose level in glucose tolerance test (time course and AUC) [2]: significantly decreased | blood cholesterol level [3]: significantly decreased | blood triglyceride level [3]: significantly decreased | size of adipocytes in abdominal fat tissue [4]: significantly decreased | blood glucose level in insulin tolerance test (time course and AUC) [5]: significantly decreased | fat mass [6]: significantly decreased | body weight ([7]; C57BL/6 mice, vehicle control 36.4+/−3.4 g): 31.4 ± 5.0 g | decrease of body weight compared to control group ([7]; vs vehicle): about 14%
